Like-named read-outs stand apart in the source and are kept apart here.
Tested on: Klebsiella pneumoniae ZFM4
Assay: Antibiotic resistance of ZFM4 by disk diffusion method
Assay type: cell-based
Settings: for antibiotic resistance of ZFM4 (in words): disk diffusion method
Method: The antibiotic susceptibility test disk was purchased from Hangzhou Microbial Reagent Co., Ltd., including amoxicillin, cefuroxime, gentamycin, erythromycin, vancomycin, tetracycline, penicillin, ciprofloxacin, streptomycin, and chloramphenicol.
The antibiotic resistance of Klebsiella pneumoniae ZFM4 was evaluated by disk diffusion method. 100 μL of the second-generation bacterial culture of Klebsiella pneumoniae ZFM4 was coated on LB solid medium and the antibiotic susceptibility test disk was placed on the plate. After aerobically incubation at 37° C. for 48 hrs, the diameter of the inhibition zone was measured. […] That is, Klebsiella pneumoniae ZFM4 had multiple drug resistance.

**Q.** Which results are given for `CC1(C)S[C@@H]2[C@H](NC(=O)[C@H](N)c3ccc(O)cc3)C(=O)N2[C@H]1C(=O)O` [Amoxicillin]?
**A.** zone of inhibition at 25 µg/disc (Klebsiella pneumoniae, ZFM4, Amoxicillin disk 25 μg/tablet, 37° C., 48 hrs, read-out: Drug resistance evaluation result): < 13 mm; antibiotic resistance of ZFM4 (in words): resistant

**Q.** Which results are given for `CO/N=C(\C(=O)N[C@@H]1C(=O)N2C(C(=O)O)=C(COC(N)=O)CS[C@H]12)c1ccco1` [Cefuroxime]?
**A.** zone of inhibition at 30 µg/disc (Klebsiella pneumoniae, ZFM4, Cefuroxime disk 30 μg/tablet, 37° C., 48 hrs, read-out: Drug resistance evaluation result): < 10 mm; antibiotic resistance of ZFM4 (in words): resistant

**Q.** How did the zone of inhibition at 30 µg/disc (Klebsiella pneumoniae, ZFM4, Chloramphenicol disk 30 μg/tablet, 37° C., 48 hrs, read-out: Drug resistance evaluation result) turn out when `O=C(N[C@H](CO)[C@H](O)c1ccc([N+](=O)[O-])cc1)C(Cl)Cl` [Chloramphenicol] was run?
**A.** < 12 mm

**Q.** And the “antibiotic resistance of ZFM4 (in words)” value?
**A.** resistant

**Q.** Which zone of inhibition at 5 µg/disc (Klebsiella pneumoniae, ZFM4, Ciprofloxacin disk 5 μg/tablet, 37° C., 48 hrs, read-out: Drug resistance evaluation result) does the source give for `O=C(O)c1cn(C2CC2)c2cc(N3CCNCC3)c(F)cc2c1=O` [Ciprofloxacin] here?
**A.** 15 to 21 mm

**Q.** And the “antibiotic resistance of ZFM4 (in words)” value?
**A.** moderately resistant

**Q.** How did the zone of inhibition at 15 µg/disc (Klebsiella pneumoniae, ZFM4, Erythromycin disk 15 μg/tablet, 37° C., 48 hrs, read-out: Drug resistance evaluation result) turn out when `CC[C@H]1OC(=O)[C@H](C)[C@@H](O[C@H]2C[C@@](C)(OC)[C@@H](O)[C@H](C)O2)[C@H](C)[C@@H](O[C@@H]2O[C@H](C)C[C@H](N(C)C)[C@H]2O)[C@](C)(O)C[C@@H](C)C(=O)[C@H](C)[C@@H](O)[C@]1(C)O` [Erythromycin] was run?
**A.** < 13 mm

**Q.** And the “antibiotic resistance of ZFM4 (in words)” value?
**A.** resistant

**Q.** How did the zone of inhibition at 10 µg/disc (Klebsiella pneumoniae, ZFM4, Streptomycin disk 10 μg/tablet, 37° C., 48 hrs, read-out: Drug resistance evaluation result) turn out when `[H]/N=C(/N)N[C@H]1[C@H](O)[C@@H](O)[C@H](O[C@@H]2O[C@@H](C)[C@](O)(C=O)[C@H]2O[C@@H]2O[C@@H](CO)[C@H](O)[C@@H](O)[C@@H]2NC)[C@@H](N/C(N)=N\[H])[C@@H]1O` [Streptomycin] was run?
**A.** 11 to 15 mm

**Q.** And the “antibiotic resistance of ZFM4 (in words)” value?
**A.** moderately resistant

**Q.** For `CN(C)[C@@H]1C(O)=C(C(N)=O)C(=O)[C@@]2(O)C(O)=C3C(=O)c4c(O)cccc4[C@@](C)(O)[C@H]3C[C@@H]12` [Tetracycline], which zone of inhibition at 30 µg/disc (Klebsiella pneumoniae, ZFM4, Tetracycline disk 30 μg/tablet, 37° C., 48 hrs, read-out: Drug resistance evaluation result) is on record?
**A.** > 15 mm

**Q.** How did the zone of inhibition at 30 µg/disc (Klebsiella pneumoniae, ZFM4, 48 h, read-out: Drug resistance evaluation result) turn out when `CN[C@H](CC(C)C)C(=O)N[C@H]1C(=O)N[C@@H](CC(N)=O)C(=O)N[C@H]2C(=O)N[C@H]3C(=O)N[C@H](C(=O)N[C@H](C(=O)O)c4cc(O)cc(O)c4-c4cc3ccc4O)[C@H](O)c3ccc(c(Cl)c3)Oc3cc2cc(c3O[C@@H]2O[C@H](CO)[C@@H](O)[C@H](O)[C@H]2O[C@H]2C[C@](C)(N)[C@H](O)[C@H](C)O2)Oc2ccc(cc2Cl)[C@H]1O` [Vancomycin] was run?
**A.** < 14 mm

**Q.** What about the “antibiotic resistance of ZFM4 (in words)” value of the same compound?
**A.** resistant

**Q.** How did the “Drug resistance evaluation result” value (Gentamicin disk 10 μg/tablet, 37° C., 48 hrs) turn out when Gentamicin was run?
**A.** R (≤12)

**Q.** And the “antibiotic resistance of ZFM4 (in words)” value?
**A.** resistant

**Q.** For Penicillin, which “Drug resistance evaluation result” value (Penicillin disk 10 μg/tablet, 37° C., 48 hrs) is on record?
**A.** R (≤14)

**Q.** What about the “antibiotic resistance of ZFM4 (in words)” value of the same compound?
**A.** resistant

— patent US12285450B2, “Lactiplantibacillus plantarum effectively inhibiting multi-drug-resistant Klebsiella pneumoniae and use thereof” (priority 2023, dated 2025)
